Measured values from ChEMBL document CHEMBL1201862, “PubChem BioAssay data set” (2004).
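In this assay, cells in 96-well plates receive the compound at five concentrations for 48 hours. Endpoints are linearly interpolated between the surrounding concentrations. GI50 is the concentration that inhibits growth by half.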 Active and inactive are the calls of the source. Rule as the data show it: active = GI50 up to about 1.1 µM and inactive = higher. Non-standard residues stand in square brackets, D forms with d. Residues, ends and D or L forms follow the SMILES beside them. ξ: configuration not given here. *: point of attachment. Cbz = O=C(OCc1ccccc1)*; ξK = NCCCCC(N)C(=O)O

Columns and labels:
Test in all cases: NCI tumour cell line growth inhibition, 48 h
UACC-257 = tested on: UACC-257
NCI/ADR-RES = tested on: NCI/ADR-RES
RXF 393 = tested on: RXF 393
MDA-MB-435 = tested on: MDA-MB-435
SK-MEL-5 = tested on: SK-MEL-5
NCI-H226 = tested on: NCI-H226
NCI-H460 = tested on: NCI-H460
SF-268 = tested on: SF-268
SNB-19 = tested on: SNB-19
SF-539 = tested on: SF-539
HOP-92 = tested on: HOP-92
HL-60 = tested on: HL-60
MDA-MB-231 = tested on: MDA-MB-231
K562 = tested on: K562
SK-OV-3 = tested on: SK-OV-3
HT-29 = tested on: HT-29
IGROV-1 = tested on: IGROV-1
KM12 = tested on: KM12
Malme-3M = tested on: Malme-3M
SW-620 = tested on: SW-620
UO-31 = tested on: UO-31
U-251 = tested on: U-251
M14 = tested on: M14
Hs-578T = tested on: Hs-578T
OVCAR-4 = tested on: OVCAR-4
T47D = tested on: T47D
SNB-75 = tested on: SNB-75
COLO 205 = tested on: COLO 205
MCF7 = tested on: MCF7
NCI-H23 = tested on: NCI-H23
OVCAR-8 = tested on: OVCAR-8
CCRF-CEM = tested on: CCRF-CEM
SF-295 = tested on: SF-295
OVCAR-3 = tested on: OVCAR-3
NCI-H522 = tested on: NCI-H522
HCT-116 = tested on: HCT-116
ACHN = tested on: ACHN
UACC-62 = tested on: UACC-62
SR = tested on: SR
HCT-15 = tested on: HCT-15
MDA-N = tested on: MDA-N
DU-145 = tested on: DU-145
CAKI-1 = tested on: CAKI-1
EKVX = tested on: EKVX
HOP-62 = tested on: HOP-62
SN12C = tested on: SN12C
MOLT-4 = tested on: MOLT-4
LOX IMVI = tested on: LOX IMVI
A549 = tested on: A549
SK-MEL-28 = tested on: SK-MEL-28
TK-10 = tested on: TK-10
786-0 = tested on: 786-0
RPMI-8226 = tested on: RPMI-8226
OVCAR-5 = tested on: OVCAR-5
A498 = tested on: A498
SK-MEL-2 = tested on: SK-MEL-2
HCC 2998 = tested on: HCC 2998
PC-3 = tested on: PC-3

Question: `N[C@H](Cc1ccc2oc3cc(=O)c4ccccc4c-3nc2c1)C(=O)O` was tested. Which GI50 (UACC-257) did it give?
Answer: 29.8 µM (inactive)

Question: What about the GI50 (NCI/ADR-RES) of the same compound?
Answer: > 100 µM (inactive)

Question: What about the GI50 (RXF 393) of the same compound?
Answer: 70.1 µM (inactive)

Question: What about the GI50 (MDA-MB-435) of the same compound?
Answer: 15.5 µM (inactive)

Question: What about the GI50 (SK-MEL-5) of the same compound?
Answer: 20.1 µM (inactive)

Question: And the GI50 (NCI-H226)?
Answer: 40.8 µM (inactive)

Question: What about the GI50 (NCI-H460) of the same compound?
Answer: 25.9 µM (inactive)

Question: And the GI50 (SF-268)?
Answer: 79.6 µM (inactive)

Question: What about the GI50 (SNB-19) of the same compound?
Answer: 34.4 µM (inactive)

Question: What about the GI50 (SF-539) of the same compound?
Answer: 42.8 µM (inactive)

Question: And the GI50 (HOP-92)?
Answer: > 100 µM (inactive)

Question: What about the GI50 (HL-60) of the same compound?
Answer: 27.7 µM (inactive)

Question: What about the GI50 (MDA-MB-231) of the same compound?
Answer: 62.7 µM (inactive)

Question: And the GI50 (K562)?
Answer: 26.2 µM (inactive)

Question: What about the GI50 (SK-OV-3) of the same compound?
Answer: > 100 µM (inactive)

Question: And the GI50 (HT-29)?
Answer: 29.2 µM (inactive)

Question: What about the GI50 (IGROV-1) of the same compound?
Answer: 32.3 µM (inactive)

Question: And the GI50 (KM12)?
Answer: 37.3 µM (inactive)

Question: What about the GI50 (Malme-3M) of the same compound?
Answer: 21 µM (inactive)

Question: What about the GI50 (SW-620) of the same compound?
Answer: 46.7 µM (inactive)

Question: What about the GI50 (UO-31) of the same compound?
Answer: > 100 µM (inactive)

Question: What about the GI50 (U-251) of the same compound?
Answer: 98.4 µM (inactive)

Question: And the GI50 (M14)?
Answer: 19.3 µM (inactive)

Question: What about the GI50 (Hs-578T) of the same compound?
Answer: 39.6 µM (inactive)

Question: And the GI50 (OVCAR-4)?
Answer: > 100 µM (inactive)

Question: What about the GI50 (T47D) of the same compound?
Answer: > 100 µM (inactive)

Question: What about the GI50 (SNB-75) of the same compound?
Answer: 67 µM (inactive)

Question: What about the GI50 (COLO 205) of the same compound?
Answer: 30.3 µM (inactive)

Question: And the GI50 (MCF7)?
Answer: 28.5 µM (inactive)

Question: What about the GI50 (NCI-H23) of the same compound?
Answer: 23.7 µM (inactive)

Question: And the GI50 (OVCAR-8)?
Answer: 30.5 µM (inactive)

Question: What about the GI50 (CCRF-CEM) of the same compound?
Answer: 20.9 µM (inactive)

Question: What about the GI50 (SF-295) of the same compound?
Answer: 42 µM (inactive)

Question: What about the GI50 (OVCAR-3) of the same compound?
Answer: 29.2 µM (inactive)

Question: And the GI50 (NCI-H522)?
Answer: 44.7 µM (inactive)

Question: And the GI50 (HCT-116)?
Answer: 46.3 µM (inactive)

Question: What about the GI50 (ACHN) of the same compound?
Answer: > 100 µM (inactive)

Question: And the GI50 (UACC-62)?
Answer: 26.7 µM (inactive)

Question: What about the GI50 (SR) of the same compound?
Answer: 17.9 µM (inactive)

Question: What about the GI50 (HCT-15) of the same compound?
Answer: 39.4 µM

Question: And the GI50 (MDA-N)?
Answer: 15.3 µM (inactive)

Question: What about the GI50 (DU-145) of the same compound?
Answer: 21.7 µM (inactive)

Question: What about the GI50 (CAKI-1) of the same compound?
Answer: > 100 µM (inactive)

Question: What about the GI50 (EKVX) of the same compound?
Answer: > 100 µM (inactive)

Question: What about the GI50 (HOP-62) of the same compound?
Answer: 46.5 µM (inactive)

Question: What about the GI50 (SN12C) of the same compound?
Answer: 42.5 µM (inactive)

Question: What about the GI50 (MOLT-4) of the same compound?
Answer: 37.8 µM (inactive)

Question: And the GI50 (LOX IMVI)?
Answer: 33.2 µM (inactive)

Question: And the GI50 (A549)?
Answer: 33.7 µM (inactive)

Question: What about the GI50 (SK-MEL-28) of the same compound?
Answer: > 100 µM (inactive)

Question: And the GI50 (TK-10)?
Answer: 97.5 µM (inactive)

Question: And the GI50 (786-0)?
Answer: 89.9 µM (inactive)

Question: What about the GI50 (RPMI-8226) of the same compound?
Answer: 24.2 µM (inactive)

Question: And the GI50 (OVCAR-5)?
Answer: 65.9 µM (inactive)

Question: And the GI50 (A498)?
Answer: 49.7 µM (inactive)

Question: Which results are given for `NCCCCC(NC(=O)OCc1ccccc1)C(=O)NCC(N)=O` (stereo unspecified) (Cbz-[ξK]-Gly-NH2)?
Answer: GI50 (UACC-257): > 100 µM (inactive); GI50 (NCI/ADR-RES): > 100 µM (inactive); GI50 (RXF 393): > 100 µM (inactive); GI50 (MDA-MB-435): > 100 µM (inactive); GI50 (SK-MEL-5): > 100 µM (inactive); GI50 (NCI-H226): > 100 µM (inactive); GI50 (NCI-H460): > 100 µM (inactive); GI50 (SF-268): > 100 µM (inactive); GI50 (SNB-19): > 100 µM (inactive); GI50 (SF-539): > 100 µM (inactive); GI50 (HOP-92): > 100 µM (inactive); GI50 (MDA-MB-231): > 100 µM (inactive); GI50 (K562): > 100 µM (inactive); GI50 (SK-OV-3): > 100 µM (inactive); GI50 (HT-29): > 100 µM (inactive); GI50 (IGROV-1): > 100 µM (inactive); GI50 (KM12): > 100 µM (inactive); GI50 (Malme-3M): > 100 µM (inactive); GI50 (SW-620): > 100 µM (inactive); GI50 (SK-MEL-2): > 100 µM (inactive); GI50 (UO-31): > 100 µM (inactive); GI50 (U-251): > 100 µM (inactive); GI50 (M14): > 100 µM (inactive); GI50 (Hs-578T): > 100 µM (inactive); GI50 (OVCAR-4): > 100 µM (inactive); GI50 (T47D): > 100 µM (inactive); GI50 (HCC 2998): > 100 µM (inactive); GI50 (SNB-75): > 100 µM (inactive); GI50 (COLO 205): > 100 µM (inactive); GI50 (MCF7): > 100 µM (inactive); GI50 (NCI-H23): > 100 µM (inactive); GI50 (OVCAR-8): > 100 µM (inactive); GI50 (PC-3): > 100 µM (inactive); GI50 (CCRF-CEM): > 100 µM (inactive); GI50 (SF-295): > 100 µM (inactive); GI50 (OVCAR-3): > 100 µM (inactive); GI50 (NCI-H522): > 100 µM (inactive); GI50 (HCT-116): > 100 µM (inactive); GI50 (ACHN): > 100 µM (inactive); GI50 (UACC-62): > 100 µM (inactive); GI50 (SR): > 100 µM (inactive); GI50 (HCT-15): > 100 µM; GI50 (MDA-N): > 100 µM (inactive); GI50 (DU-145): > 100 µM (inactive); GI50 (CAKI-1): > 100 µM (inactive); GI50 (EKVX): > 100 µM (inactive); GI50 (HOP-62): > 100 µM (inactive); GI50 (SN12C): > 100 µM (inactive); GI50 (MOLT-4): > 100 µM (inactive); GI50 (LOX IMVI): > 100 µM (inactive); GI50 (A549): > 100 µM (inactive); GI50 (SK-MEL-28): > 100 µM (inactive); GI50 (786-0): > 100 µM (inactive); GI50 (RPMI-8226): > 100 µM (inactive); GI50 (OVCAR-5): > 100 µM (inactive); GI50 (A498): > 100 µM (inactive)
